{"source": "patent US12012415B2", "about": "“Compositions and methods for the diagnosis, treatment and prevention of neoplastic and neurological disorders” (AscentGene, Inc., priority 2018, dated 2024)", "key": {"U87 cells": {"tested_on": "U87 cells", "test": "Cell viability, combination with TMZ in U87 cells", "type": "cell-based, human", "method": "Human glioma cell lines of U251, SF539, SF295 were obtained from NCI/DTP and U87 was obtained from ATCC. U251, SF539, and SF295 cells were grown in RPMI (Gibco) medium; U87 cells were grown in EMEM medium (ATCC), all the cells culture media containing 10% FBS and 100 unit/ml of Penicillin-Streptomycin, and cells were incubated in a 37 °C/5% CO2 humidified hood. One day before chemical compounds treatment, four kinds of cells U251, SF539, SF295, and U87 were seeded in 96-well plates at 10,000 cells/well (100 μl) with triplicate. The culture medium was removed and cells were treated with a series different concentration of AG1601/in correspond fresh media. Following an additional incubation of 48 hours at 37° C./5% CO2, cells proliferation assay was performed with Cell Counting Kit-8 (Dojindo Laboratories, #CK04), added 10 μl of reagent to the cells in each well after replacing with 100 μl of fresh media, mix well, following an additional 2 to 3 hours incubation at 37° C./5% CO2, read wavelengths of OD450 nm in a 96-well plate reader (Victor 2, 1420 Multilabel counter), data analysis were performed with Excel and it is platted as relative mean OD450 nm+/−standard error of the mean.\nCells were treated with indicated content of AG-1601 for 48 hours, then followed by performance of cell viability assays. […]"}, "PC4 protein": {"target": "PC4 protein (Homo sapiens, UniProt P53999)", "test": "PC4-DNA binding interference", "details": "high-throughput screen platform", "method": "A number of small molecules were incubated with PC4 protein and DNA binding assessed."}, "T98G cells": {"tested_on": "T98G cells", "test": "Cell viability in TMZ-resistant T98G cells", "type": "cell-based", "details": "TMZ plus AG-1601", "method": "Cells were treated with indicated content of AG-1601 for 48 hours, then followed by performance of cell viability assays. Efficacy of AG-1601 in rat cell (see FIGS. 24A and B), of AG-1601 in human glioma cell see FIGS. 25A and 25B), different batches of AG-1601 in C6 and U251 cells (see FIGS. 26A and 26B), of AG-1601 in C6 and U87 cells (see FIGS. 27A and 27B), of AG-1601, TMZ, and Carmustine in U251 cells (see FIGS. 28A and 28B), and of AG-1601, TMZ, and Carmustine in U87 cells (see FIGS. 29A and 29B). […] Cell viability was determined in T98G cell and U251 cell after treatment with DMSO, TMZ, AG-1601 and TMZ plus AG-1601 (FIG. 30)."}, "[1]": {"tested_on": "Aβ1-42-induced cognitive impairments", "test": "Novel-object recognition (NOR) test in Aβ1-42 AD rat model", "type": "in vivo, rats", "method": "Aβ1-42 (Sigma-Aldrich, St. Louis, MO, USA;) was dissolved in double-distilled water at the concentration of 5 μg/μl, and incubated at 37° C. for one week before surgery. The rats were randomly divided into four groups as Sham (n=8), Sham+AG-1601 (n=8), Aβ1-42 (n=8) and Aβ1-42+AG-1601 (n=8). The Alzheimer's disease rat models were established by intracerebroventricular (i.c.v.) injection of Aβ1-42 aggregates. The animals were anesthetized with intraperitoneal injection of pentobarbital sodium (50 mg/kg) and placed in a stereotaxic apparatus (Narishige, Japan). The head skin of the rat was opened and two small holes were drilled on both sides of skull following the coordinates: 0.8 mm posterior to bregma, +1.4 mm lateral to sagittal suture, 4.0 mm beneath the surface of brain. Aβ1-42 (2.0 μl per side) was injected bilaterally into the lateral ventricles through micro-syringe. The needle was taken out after 5 minutes of the injection to ensure the aggregates were infused completely. […] The short- and long-term memory functions of the animals were evaluated by using the NOR test, which were carried out after the open field test. […] A recognition index was calculated by the percentage of TB/(TA+TB) (TA: time spent exploring the familiar object A; TB: time spent exploring the novel object B). […]"}}, "data": [{"smiles": "C=CC1=C(C)c2cc3[nH]c(cc4nc(cc5[nH]c(cc1n2)c(C)c5C=C)C(C)=C4CCC(=O)O)c(CCC(=O)NCCCc1ccccc1)c3C", "note": "[AG-1601, 3-(2,8,13,18-tetramethyl-3-(3-oxo-3-((3-phenylpropyl)amino)propyl)-12,17-divinylporphyrin-7-yl)propanoic acid]", "values": [{"measurement": "potentiation of the effect of TMZ", "setting": "U87 cells", "value": "potentiates the effect of TMZ"}, {"measurement": "PC4 inhibition", "setting": "PC4 protein", "value": "strong PC4 inhibitor"}, {"measurement": "effect on TMZ-resistance", "setting": "T98G cells", "value": "Overcomes the Effect of TMZ-resistance"}, {"measurement": "recognition index, short-term memory test", "setting": "[1]; 1 h after training, vs Aβ1-42 group", "value": "significant increase in recognition index"}, {"measurement": "cognitive impairments in NOR test", "setting": "[1]; Aβ42 induced AD rat model", "value": "significantly reversed cognitive impairments"}]}]}
